Measurements as given in patent US7956053B2, “Inhibitors of tyrosine kinases” (Novartis AG, priority 2002, dated 2011).

Experiments:
Format in all cases: biochemical
[1] = biological target: T1, c-Abl (Homo sapiens, UniProt P00519); assay: Test for activity against c-Abl protein tyrosine kinase (filter binding assay)
T1 construct: The His-tagged kinase domain of c-Abl is cloned and expressed in the baculovirus/Sf9 system; His; made in house; host or cells: baculovirus/Sf9
T1 sequence (P00519 242-493 limits assumed): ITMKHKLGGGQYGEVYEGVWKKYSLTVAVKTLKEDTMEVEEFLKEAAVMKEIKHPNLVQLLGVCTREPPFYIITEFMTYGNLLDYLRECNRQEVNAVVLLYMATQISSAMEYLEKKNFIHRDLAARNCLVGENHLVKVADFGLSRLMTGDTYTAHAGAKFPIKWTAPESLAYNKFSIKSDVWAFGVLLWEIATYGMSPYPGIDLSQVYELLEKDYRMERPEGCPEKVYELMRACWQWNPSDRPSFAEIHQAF
Summary of the method: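 His-tagged c-Abl kinase domain expressed in baculovirus/Sf9 cells; 50 ng enzyme with 30 μg/mL poly-AEKY, 5 μM ATP plus [γ-33P]-ATP, pH 7.5 Tris, 1% DMSO. Stopped with EDTA, captured on PVDF membrane and counted by scintillation. Values are % inhibition at 10 μM.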

[2] = biological target: KDR (Homo sapiens, UniProt P35968); assay: Enzymatic KDR in vitro inhibition
Summary of the method: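 KDR kinase inhibition was measured in vitro with a radiometric filter-binding method. The kinase was incubated for 10 minutes at room temperature with poly(Glu,Tyr) 4:1 and 8 μM [^33P]-ATP (0.2 μCi) in 20 mM Tris.HCl pH 7.5 buffer with MnCl2, MgCl2, vanadate, PEG 20000, dithiothreitol and 1% DMSO. EDTA stopped the reaction, aliquots were spotted onto PVDF membranes, and after acid and ethanol washes radioactivity was counted. Results are given as % inhibition at 10 μM.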

[3] = biological target: T2, Flt3 (Homo sapiens, UniProt P36888); assay: Enzymatic Flt3 in vitro inhibition; conditions: % inhibition at 10 μM
T2 sequence (P36888 27-993): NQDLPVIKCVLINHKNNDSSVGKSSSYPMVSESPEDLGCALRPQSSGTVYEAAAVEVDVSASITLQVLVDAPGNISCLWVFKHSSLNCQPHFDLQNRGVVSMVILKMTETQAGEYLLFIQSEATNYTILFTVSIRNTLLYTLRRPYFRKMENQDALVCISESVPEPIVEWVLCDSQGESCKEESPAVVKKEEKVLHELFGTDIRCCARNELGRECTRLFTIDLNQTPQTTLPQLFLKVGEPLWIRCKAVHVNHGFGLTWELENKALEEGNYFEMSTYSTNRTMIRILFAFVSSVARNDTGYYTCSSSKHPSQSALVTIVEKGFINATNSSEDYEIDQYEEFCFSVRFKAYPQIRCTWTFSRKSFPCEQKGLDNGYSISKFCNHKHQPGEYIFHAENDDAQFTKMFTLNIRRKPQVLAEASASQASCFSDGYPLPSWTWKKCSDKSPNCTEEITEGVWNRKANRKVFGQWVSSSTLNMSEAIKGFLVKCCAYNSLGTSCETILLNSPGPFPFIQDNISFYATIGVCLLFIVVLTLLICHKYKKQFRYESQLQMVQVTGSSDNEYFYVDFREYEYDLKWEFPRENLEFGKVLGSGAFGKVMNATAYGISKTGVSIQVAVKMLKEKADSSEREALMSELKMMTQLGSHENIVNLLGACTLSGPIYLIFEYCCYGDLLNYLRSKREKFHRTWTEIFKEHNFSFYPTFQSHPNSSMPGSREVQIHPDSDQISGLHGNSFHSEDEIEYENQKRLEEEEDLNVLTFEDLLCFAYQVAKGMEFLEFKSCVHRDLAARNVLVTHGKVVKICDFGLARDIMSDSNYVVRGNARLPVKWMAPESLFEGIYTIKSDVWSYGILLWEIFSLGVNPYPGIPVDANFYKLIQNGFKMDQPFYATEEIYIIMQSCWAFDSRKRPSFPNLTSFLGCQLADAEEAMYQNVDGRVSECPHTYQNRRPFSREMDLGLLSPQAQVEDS
Description: Enzymatic (c-Abl, KDR, Flt3) in vitro inhibition data are presented as % inhibition at 10 μM. The measurements are made as described above in the general description.

Chain of KDR (P35968 20-1356): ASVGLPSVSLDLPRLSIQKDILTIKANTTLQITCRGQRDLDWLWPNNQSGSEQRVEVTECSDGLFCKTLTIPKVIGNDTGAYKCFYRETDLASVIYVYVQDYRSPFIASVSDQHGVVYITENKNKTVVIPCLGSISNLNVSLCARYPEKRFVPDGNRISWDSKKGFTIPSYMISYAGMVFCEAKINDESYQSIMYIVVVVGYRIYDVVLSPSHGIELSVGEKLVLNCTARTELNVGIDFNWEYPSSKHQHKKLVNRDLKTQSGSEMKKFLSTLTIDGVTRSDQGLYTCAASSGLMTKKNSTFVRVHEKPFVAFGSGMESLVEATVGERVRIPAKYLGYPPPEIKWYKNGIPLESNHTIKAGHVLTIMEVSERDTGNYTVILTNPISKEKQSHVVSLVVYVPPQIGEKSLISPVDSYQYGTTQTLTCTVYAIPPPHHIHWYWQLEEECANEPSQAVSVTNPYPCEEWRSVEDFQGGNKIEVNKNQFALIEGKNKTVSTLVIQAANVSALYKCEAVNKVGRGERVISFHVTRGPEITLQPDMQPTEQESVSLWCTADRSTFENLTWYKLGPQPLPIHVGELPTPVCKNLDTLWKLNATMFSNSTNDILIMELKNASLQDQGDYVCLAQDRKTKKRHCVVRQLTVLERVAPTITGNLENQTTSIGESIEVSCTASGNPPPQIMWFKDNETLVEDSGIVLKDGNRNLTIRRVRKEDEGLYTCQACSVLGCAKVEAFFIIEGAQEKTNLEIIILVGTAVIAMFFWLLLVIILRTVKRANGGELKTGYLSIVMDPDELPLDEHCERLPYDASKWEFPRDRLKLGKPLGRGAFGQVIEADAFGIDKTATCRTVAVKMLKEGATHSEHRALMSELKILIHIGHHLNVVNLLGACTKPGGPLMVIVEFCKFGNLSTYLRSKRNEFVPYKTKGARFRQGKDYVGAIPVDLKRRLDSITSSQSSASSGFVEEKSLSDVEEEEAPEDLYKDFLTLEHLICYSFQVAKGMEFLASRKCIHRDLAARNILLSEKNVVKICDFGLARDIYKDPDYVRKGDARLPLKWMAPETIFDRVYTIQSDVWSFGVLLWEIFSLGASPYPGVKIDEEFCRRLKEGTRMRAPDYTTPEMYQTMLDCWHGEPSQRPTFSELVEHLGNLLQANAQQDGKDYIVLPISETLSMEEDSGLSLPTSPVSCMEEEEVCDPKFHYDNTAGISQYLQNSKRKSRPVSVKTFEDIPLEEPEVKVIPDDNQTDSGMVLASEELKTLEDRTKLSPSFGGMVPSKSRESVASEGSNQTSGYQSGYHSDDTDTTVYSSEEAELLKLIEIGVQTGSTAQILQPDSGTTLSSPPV

With CCN(CC)c1cccc(NC(=O)c2ccc(C)c(Nc3nccc(-c4cccnc4)n3)c2)c1 [Example 67, N-[3-(Diethylamino)phenyl]-4-methyl-3-[[4-(3-pyridinyl)-2-Pyrimidinyl]amino]benzamide] the inhibition at 10 µM [1] was 98%, the inhibition at 10 µM [2] was 88% and the “Flt3 %@10 μM” value [3] was 41%.
